Results reported in US20050085554A1, “Methods of treating disease through the administration of a manzamine analog or derivative” (priority 2003, published 2005).
Converted amounts (≈) assume the structure as drawn. Like-named read-outs stand apart in the source and are kept apart here.

Key:
[1] = test system: Plasmodium falciparum (D6 clone); experiment: Antimalarial activity in vitro, D6 clone; format: cell-based; settings: for IC50: Plasmodium falciparum, D6
[2] = test system: P. falciparum (chlorine-resistant W2 clone); experiment: Antimalarial activity in vitro, W2 clone; format: cell-based, Plasmodium falciparum; settings: for IC50: Plasmodium falciparum
[3] = test system: Staphylococcus aureus; experiment: Antibacterial activity against S. aureus; format: cell-based; settings: for IC50: Staphylococcus aureus
[4] = test system: methicillin-resistant Staphylococcus aureus; experiment: Antibacterial activity against MRS; format: cell-based
[5] = test system: Mycobacterium intracellulare; experiment: Activity against M. intracellulare; format: cell-based
[6] = test system: Mycobacterium tuberculosis H37Rv; experiment: In vitro antimycobacterial activity (Microplate Alamar Blue Assay), MIC; format: cell-based; settings: for MIC: Mycobacterium tuberculosis, H37RV
[7] = test system: HIV-1LAV; experiment: Anti-HIV-1 activity in PBM cells; format: cell-based, human immunodeficiency virus (HIV-1); settings: T5
Method: Anti-HIV-1 activity was determined in PBM cells as described previously. See, Stock solutions (20 or 40 mM) of the compounds were prepared in sterile DMSO and then diluted to the desired concentration in growth medium. Cells were infected with the prototype HIV-1LAV at a multiplicity of infection of 0.1. Details on the infection of cells and assessment of antiviral effects was described previously. See, Schinazi, R. F.; McMillan, A.; Cannon, D.; Mathis, R.; Lloyd, R. M.; Peck, A.; Sommadossi, J.-P.; Clair, M. S.; Wilson, J.; Furman, P. A.; Painter G.; Choi, W.-B.; Liotta, D. C. Antimicrob. Agents Chemother. 1992, 36, 2423-2431 and Schinazi, R. F.; Sommadossi, J.-P.; Saalmann, V.; Cannon, D. L.; Xie, M.-Y.; Hart, G. C.; Smith, G. A.; Hahn, E. F. Antimicrob. Agents Chemother. 1990, 34, 1061-1067.

[8] = test system: Leishmania donovani; experiment: Antileishmanial activity in vitro; format: cell-based; settings: T4
[9] = test system: Cryptococcus neoformans; experiment: Antifungal activity against Cryptococcus neoformans; format: cell-based; settings: T5, NA = not active
[10] = T4, NA = not active, read-out: Plasmodium falciparum (D6 clone) IC 50
[11] = W2, read-out: P. falciparum (chlorine-resistant W2 clone) IC 50
[12] = Mycobacterium intracellulare, T5, NA = not active, read-out: IC50 M. intracellulare
[13] = T4, read-out: Mycobacterium Tuberculosis (H37Rv) MIC

Compound	Mycobacterium Tuberculosis (H37Rv) MIC ([6]; T4) [µg/mL]	EC50 [7] [µM]	IC50 M. intracellulare ([5]; T5, NA = not active) [µg/mL]	Plasmodium falciparum (D6 clone) IC 50 ([1]; T4, NA = not active) [µg/mL]	P. falciparum (chlorine-resistant W2 clone) IC 50 ([2]; T4, NA = not active) [µg/mL]	Leishmania donovani IC 50 [8] [µg/mL]	Leishmania donovani IC 90 [8] [µg/mL]	further results
CCN(CC)CCCC(C)Nc1ccnc2cc(Cl)ccc12 (centres unmarked) [Chloroquine, reference compound]	–	–	–	–	–	–	–	IC50 [1, 10]: 0.0155 µg/mL (≈ 0.0485 µM); IC50 ([1]; T6): 0.01 µg/mL (≈ 0.0313 µM); IC50 [2, 11]: 0.17 µg/mL (≈ 0.531 µM); IC50 ([2]; W2, T6, read-out: P. falciparum (W2 clone) IC50): 0.14 µg/mL (≈ 0.438 µM)
O=C(O)c1cn(C2CC2)c2cc(N3CCNCC3)c(F)cc2c1=O [Ciprofloxacin, reference compound]	–	–	–	–	–	–	–	IC50 ([3]; T5, NA = not active, read-out: Antibacterial IC50 S. aureus): 0.1 µg/mL (≈ 0.302 µM); IC50 ([3]; T6, read-out: Staphylococcus aureus IC50): 0.1 µg/mL (≈ 0.302 µM); IC50 ([4]; Staphylococcus aureus, T5, NA = not active, read-out: Antibacterial IC50 MRS): 0.1 µg/mL (≈ 0.302 µM); MIC ([4]; Staphylococcus aureus, T6): 0.31 µg/mL (≈ 0.936 µM); IC50 ([4]; T6, MRS: methicillin-resistant Staphylococcus aureus, read-out: MRS IC50): 0.1 µg/mL (≈ 0.302 µM); IC50 [5, 12]: 0.25 µg/mL (≈ 0.754 µM); MIC ([5]; Mycobacterium intracellulare, T6): 0.63 µg/mL (≈ 1.9 µM); IC50 ([5]; Mycobacterium intracellulare, T6, read-out: Mycobacterium intracellulare IC50): 0.25 µg/mL (≈ 0.754 µM)
O=CC1=C[C@@]2(O)CC/C=C\CCCCN3CC[C@@H]1[C@]1(CC4/C=C\CCCCN4[C@H]12)C3 (some centres unmarked) [Ircinal A]	30.2	6.8	50 (≈ 122 µM)	–	–	–	–	–
OCC1=C[C@]2(O)CC/C=C\CCCCN3CC[C@@H]1[C@@]1(C[C@H]4/C=C\CCCCN4[C@@H]12)C3 [Ircinol A]	1.93	4.3	50 (≈ 121 µM)	2.4	3.1	–	–	Antibacterial IC50 MRS ([4]; T5, NA = not active): 30 µg/mL
O=C1CCCN2[C@@H](CC1)C[C@]13CN4CCCC/C=C\CC[C@](O)(C=C(c5nccc6c5[nH]c5ccccc56)[C@@H]1CC4)[C@H]23 [Manzamine E]	3.76	13.1	12.5 (≈ 22.1 µM)	3.4	4.76	3.8	6.8	–
O=C1CCCN2[C@@H](CC1)C[C@]13CN4CCCC/C=C\CC[C@](O)(C=C(c5nccc6c5[nH]c5c(O)cccc56)C1CC4)[C@H]23 (some centres unmarked) [Manzamine F]	2.56	7.3	6.25 (≈ 10.8 µM)	0.78	1.7	4.2	7	Antifungal IC50 C. neoformans [9]: 6.5 µg/mL; Plasmodium falciparum (D6 clone) IC 50 ([1]; T8, NA not defined): 0.78 µg/mL; P. falciparum (chlorine-resistant W2 clone) IC 50 ([2]; T8): 1.7 µg/mL
O[C@]12C=C(c3nccc4c3[nH]c3ccccc34)[C@@H]3CCN(CCCC/C=C\CC1)C[C@@]31CC/C=C\CCCCN[C@H]12 [Manzamine J]	1.7	–	–	1.3	0.75	25	45	–
Oc1ccc2[nH]c3c(C4=C[C@@]5(O)CC/C=C\CCCCN6CC[C@@H]4[C@@]4(C6)C[C@@]67CC[C@@H](CCCN6[C@H]45)O7)nccc3c2c1 [Manzamine X]	–	2.3	1.5 (≈ 2.58 µM)	0.95	2	5.7	11	Antifungal IC50 C. neoformans [9]: 3.0 µg/mL; Antibacterial IC50 S. aureus ([3]; T5, NA = not active): 1.0 µg/mL; Antibacterial IC50 MRS ([4]; T5, NA = not active): 0.75 µg/mL
N=C(N)c1ccc(OCCCCCOc2ccc(C(=N)N)cc2)cc1 [Pentamidine, reference compound]	–	–	–	–	–	–	–	IC50 ([8]; Leishmania donovani, read-out: Leishmania donovani IC 50): 2.1 µg/mL (≈ 6.17 µM); IC90 ([8]; Leishmania donovani, read-out: Leishmania donovani IC 90): 10 µg/mL (≈ 29.4 µM)
CO[C@H]1/C=C/O[C@@]2(C)Oc3c(C)c(O)c4c(O)c(c(/C=N/N5CCN(C)CC5)c(O)c4c3C2=O)NC(=O)/C(C)=C\C=C\[C@H](C)[C@H](O)[C@@H](C)[C@@H](O)[C@@H](C)[C@H](OC(C)=O)[C@@H]1C [Rifampin, reference compound]	–	–	–	–	–	–	–	MIC [6, 13]: 0.5 µg/mL (≈ 0.608 µM); MIC ([6]; T6, read-out: Mycobacterium tuberculosis MIC): 0.24 µg/mL (≈ 0.292 µM); MIC ([6]; rifampin = positive control, read-out: MIC against Mycobacterium tuberculosis (Mtb)): 0.16 µg/mL (≈ 0.194 µM)
O[C@@H]1CCCN2CC[C@@H]1O[C@@]13CC[C@@H](OC[C@]45CN6CCCC/C=C\CC[C@](O)(C=C(c7nccc8c7[nH]c7ccccc78)[C@@H]4CC6)[C@H]25)[C@@H](O)CCN1[C@@H]1[C@]2(CN4CCCC/C=C\CC[C@]1(O)C=C(c1nccc5c1[nH]c1ccccc15)[C@@H]2CC4)C3 [neo-Kauluamine]	–	–	–	–	–	–	–	MIC [6, 13]: 2 µg/mL (≈ 1.72 µM); IC50 ([9]; Cryptococcus neoformans, read-out: Antifungal IC50 C. neoformans): 3 µg/mL (≈ 2.58 µM); IC50 [1, 10]: 1.7 µg/mL (≈ 1.46 µM); IC50 [2, 11]: 2.8 µg/mL (≈ 2.41 µM); IC50 [5, 12]: 3 µg/mL (≈ 2.58 µM)
